Values joined by “and” are separate entries in the source; they are usually repeats but may differ in a detail not shown here. Identical values can stand only once.
What was measured:
[1] = 1H NMR titration with TBACl, Cl− binding; details: association constant towards Cl−, compound 2.5 mM, 95% DMSO-d6, 1:1 binding model (Bindfit), errors below 10%
Method: To verify if 1–6 formed host–guest complexes with Cl^− in solution, ^1H NMR titrations of each compound (2.5 mM) with TBACl were carried out in DMSO-d6. Increasing equivalents of Cl^− were incrementally added, with spectral information obtained upon addition of each molar equivalent of Cl^−. […] Taking 1 as an example (Fig. 2), upon addition of sequential aliquots of Cl^− there is a clear downfield shift of both squaramide NHs, with minor contributions to the binding cleft derived from the ortho-aryl protons of the aniline of 1. The binding data from each titration was fitted to a 1 : 1 binding model using the Bindfit[36] open access software, and the results are tabulated below (Table 1), alongside the respective Hammett constant for the relevant substitution pattern.[37] […] This aligns with previously reported receptors,[38] where compounds containing CF3 substituents in particular are known to have increased anion binding affinity as well as transport ability.[39]

[2] = tested on: panel of Gram-positive and -negative pathogens; test: Zone of inhibition assay; format: cell-based; details: 5 μL of 1 mM stock on nutrient agar, 37 °C, 24 h; radius ≤ 2 mm deemed not active
Method: To do this, a zone of inhibition assay was used as a qualitative measure of activity. To do so, 5 μL of a 1 mM stock of the respective compound was pipetted atop nutrient agar which was previously spread with a panel of Gram-positive and -negative pathogens of interest. Following incubation at 37 °C for 24 h, zones of inhibition were measured and recorded for each compound. Zones with a radius ≤ 2 mm were deemed as not active, and thus eliminated from further study.

[3] = tested on: S. aureus; test: Growth inhibition assay, S. aureus; format: cell-based, Staphylococcus aureus; details: 24 h, growth (OD 600 nm) relative to control, 37 °C; for IC80 / IC50: Staphylococcus aureus
Method: (§1) To determine IC50/80 values, growth (optical density) of S. aureus, methicillin-resistant S. aureus (MRSA), P. aeruginosa, and K. pneumoniae when treated with a range of concentrations of each active compound in vitro was measured at 600 nm after a 24 h incubation period at 37 °C. Each compound was studied for activity below […], and those showing little activity above 200 μM, were noted as such, and omitted from further study.
Staphylococcus aureus culture conditions
S. aureus (ATCC33951) was cultured at 37 °C in Nutrient broth (Oxoid), in an orbital shaker at 200 rpm. Stocks were kept on nutrient agar, stored at 4 °C for up to 2 months, or as glycerol stocks (50/50 glycerol:culture), stored at -70 °C indefinitely. […]
(§2) Bacterial cultures were brought to early stationary phase overnight, in nutrient broth (containing 25/50 µg/mL Ampicillin for MRSA/K. pneumoniae, respectively) at 37 °C. Cultures were diluted to an OD600 = 0.01. Aliquots of Culture (100 µl) were added to 100 µL serially diluted compound (200 – 0.78 µM) in nutrient broth in a 96-well plate (Sarstedt, Germany).
(§3) Plates were incubated at 37 °C for 24 h and growth was measured at 600 nm, where growth was measured and represented relative to control. […]

[4] = Lucigenin Cl−/NO3− exchange assay in LUVs; details: Cl− transport, 0.4 mM POPC/cholesterol 7:3 LUVs, Hill fit at 270 s
Method: Given our objective was to use such transport behaviour as a method to disrupt anion homeostasis in bacteria, we also conducted anion transport assays in Large Unilamellar Liposomes (LUVs) using the well-established Lucigenin-based Cl^−/NO3^− exchange assay.[40] Briefly, LUVs containing the chloride sensitive dye lucigenin in a NaNO3 solution were prepared and a NaCl pulse was added to create a chloride concentration gradient. Upon addition of the putative transporter, the quenching of the fluorescence of lucigenin was monitored over time to assess Cl^− influx.
Lucigenin Cl-/NO3- anion exchange assay
LUV preparation and Lucigenin assays were carried out following procedures outlined by Valkenier and co-workers.8 Large unilamellar liposomes (LUVs) were synthesized using 1-palmitoyl-2-oleoyl-sn-glycero-3-phosphocholine (POPC)(11.2 µmol, soln. in CHCl3) and Cholesterol (4.8 µmol) mixed in a ratio of 7:3. This mixture was brought to dryness under gentle vacuum and subsequently, the mixture was rehydrated in an aqueous Lucigenin solution (1 mL, 0.8mM lucigenin in 225 mM NaNO3) and stirred for 1 h to obtain heterogeneous vesicles. After that, the vesicles underwent 9 freeze-thaw cycles and were extruded through a […] polycarbonate membrane 29 times to obtain monodisperse LUVs. A Sephadex G-100 size-exclusion column was employed to remove any unencapsulated lucigenin. The collected liposomes were diluted to 40 mL with 225 mM NaNO3 to obtain a homogeneous 0.4 mM liposome solution. Lucigenin fluorescence quenching was monitored in a time dependent manner using an Agilent Spectrofluorimeter to access Cl- influx (λ ex = 430 nm, λem = 505 nm).
Cl- transport behaviour was initiated at t=0 s by adding each compound as a solvate in DMSO followed by a 25 mM NaCl pulse (75µL, 1 M NaCl in […] NaNO3) to a 3 mL liposome solution. The data was collected for at least 600 s and then Triton X-100 (5% w/w in water) was added to lyse the liposomes, and normalize to 100% efflux. The recorded data was normalised and the fraction fluorescence intensity at 270 s of each tested concentration of transporters (mol%) was plotted against transporter concentration (mol%). The data obtained was fitted to the Hill equation to obtain the EC50 value at 270 s (the concentration to obtain the half maximum effect) by using Originlab 2024b or Graphpad Prism 10:
y = START + (END ‒ START) ∗ xn/(kn + xn)
Where n is the Hill coefficient, k presents the EC 50 value.

[5] = tested on: methicillin-resistant S. aureus (MRSA); test: Growth inhibition assay, MRSA; format: cell-based, Staphylococcus aureus; details: 24 h; for IC50 / IC80: Staphylococcus aureus, MRSA; for IC50: read-out: MRSA IC50, growth (OD 600 nm) relative to control, 24 h, 37 °C; for IC80: read-out: MRSA IC80, growth (OD 600 nm) relative to control, 24 h, 37 °C; for MRSA IC50: growth (OD 600 nm) relative to control, 37 °C
Method: as §1
Staphylococcus aureus culture conditions […]
Methicillin-resistant Staphylococcus aureus culture conditions
Methicillin-resistant S. aureus (clinical isolate – St. James’ University Hospital, Dublin) was cultured at 37 °C in Nutrient broth (Oxoid), containing 25 µg/mL Ampicillin in an orbital shaker at 200 rpm. Stocks were kept on nutrient agar containing 25 µg/mL Ampicillin, stored at 4 °C for up to 2 months, or as glycerol stocks (50/50 glycerol:culture), stored at -70 °C indefinitely. […]
as §2, §3

[6] = parameters: method as in doi:10.1021/jo01097a026; details: for the relevant substitution pattern; cited from earlier work

SMILES	K a [1] [M⁻¹]	zone of inhibition, qualitative measure of activity [2]	IC80 [3] [µM]	IC50 [3] [µM]	S. aureus IC50 [3]	EC50 (mol%) [4]	IC50 [5] [µM]	IC80 [5] [µM]	MRSA IC50 [5]	Hammett parameter (σ) [6]
O=c1c(Nc2ccccc2Cl)c(NC23CC4CC(CC(C4)C2)C3)c1=O [Compound 5]	44	promising bioactivity	> 200	> 200	lay outside the concentration range tested	1.349 mol%	> 200	> 200	lay outside the concentration range tested	–
O=c1c(Nc2ccccc2)c(NC23CC4CC(CC(C4)C2)C3)c1=O [Compound 6]	138	–	> 200	> 200	lay outside the concentration range tested	–	> 200	> 200	lay outside the concentration range tested	0.0
O=c1c(Nc2ccc(Cl)cc2)c(NC23CC4CC(CC(C4)C2)C3)c1=O [Compound 3]	207	promising bioactivity	> 200	> 200	lay outside the concentration range tested	0.2597 mol% and 0.260 mol%	> 200	> 200	lay outside the concentration range tested	0.23
